Assay results published in publication PMC9281440, “In Vivo Distribution and Therapeutic Efficacy of Radioiodine-Labeled pH-Low Insertion Peptide Variant 3 in a Mouse Model of Breast Cancer” (Molecular Imaging, 2022).
Several values for one entry are separate records, joined by “and”; a condition that tells them apart may be missing. Equal entries are not always repeated. Peptide text beside a SMILES is read from it.

How the values were obtained:
MDA-MB-231 cells = experiment: In vitro cell binding assay of 125I-labeled peptides; format: cell-based, human; settings: 37°C, mean ± SD, triplicate; for binding fraction to cells, B/(B + F) × 100%: γ counter
Protocol: Cells were incubated with ^125I-WT-pHLIP or ^125I-Var3-pHLIP for 1 h at 37°C in the medium at different pH values ranging from 6.2 to 7.8 (6.2, 6.6, 7.0, 7.4, 7.8). At the same time, cells in the medium at pH 6.2 were further incubated with ^125I-labeled peptide with an excess of unlabeled peptide (25 μg/well). The supernatant was aspirated into a tube. The cells were then washed twice with PBS of the corresponding pH to remove unbound radioactivity. The wash solution was also added to the supernatant tube containing free radioactivity (F). The cells with bound radioactivity (B) were completely lysed with 300 μl sodium hydroxide and aspirated into a cell tube. The radioactive counts of the cell and supernatant tube were measured by a γ counter. The cell binding fraction of the ^125I-labeled peptides was calculated as B/(B + F) × 100%. All experiments were performed in triplicate.

[1] = tested on: SK-BR-3 tumor-bearing nude mice; experiment: Micro-SPECT/CT imaging and distribution of 125I-labeled pHLIPs; format: in vivo, mouse
Protocol: (§1) Five-week-old female athymic BALB/c nude mice (Shanghai Slaccas Experiment Animal Corp., Shanghai, China) were used in our study. Mouse xenograft models of MDA-MB-231, 4T1, and SK-BR-3 cells were produced by the subcutaneous injection of 5 × 10^6 cells (suspended in 150 μL PBS) into the right axilla of each mouse. The mice were used in subsequent experiments when tumor diameter reached 0.5-0.9 cm. The study protocol was approved by the institutional review board and by the Experimental Animal Center of Ruijin Hospital affiliated to the School of Medicine of Shanghai Jiao Tong University.
(§2) Three days before micro-SPECT/CT imaging, 300 μL of 1% Kl solution was administered to mice by oral gavage once a day, and 0.1% Kl was added into the drinking water to block thyroid gland activity. Mice-bearing MDA-MB-231, 4T1, or SK-BR-3 tumors were intravenously injected with 3.7 MBq of ^125I-WT-pHLIP or ^125I-Var3-pHLIP. Each group contained four mice. The mice were anesthetized by isoflurane inhalation, placed in the prone position, and scanned using a four-head SPECT/CT system (U-SPECT/CT, MI-Lab, Netherlands) and dedicated multipinhole apertures with a diameter of 1.5 mm at 1, 2, 4, 24, and 48 h after injection of ^125I-labeled peptides. CT images were acquired after static SPECT imaging (10 min/frame). The images were reconstructed using U-SPECT REC software and analyzed using PMOD software version 3.9 (Switzerland). Regions of interest (ROIs) were drawn in the tumors and organs, including the brain, heart, liver, lungs, kidneys, intestine, and bladder, at various time points. The radioactivity per gram (ID%/g) in the ROIs was measured to obtain the dynamic tumor-to-background ratio (TBR, muscle tissue was used as the background) and the in vivo distribution and kinetics of ^125I-WT-pHLIP and ^125I-Var3-pHLIP in the xenograft models of BC.

[2] = tested on: MDA-MB-231 tumor-bearing nude mice; experiment: as above; format: in vivo, mouse; settings: MDA-MB-231 xenografts
Protocol: as §1, §2

Distribution, Tumor ([1]; SK-BR-3 tumor-bearing nude mice, 2 h pi, 3.7 MBq iv, micro-SPECT/CT ROI, mean ± SD, n = 4): 2.93 ± 0.71 %ID/g and 2.93 ± 0.70 %ID/g | time after injection at which radioactive count in xenografts peaked ([1]; SK-BR-3 xenografts): 2 h | time after injection at which radioactive count in xenografts peaked [2]: 2 h
SMILES: CC(C)C[C@H](NC(=O)[C@H](Cc1ccc(O)c(I)c1)NC(=O)[C@H](C)NC(=O)[C@H](CCCNC(=N)N)NC(=O)[C@H](Cc1c[nH]c2ccccc12)NC(=O)[C@@H]1CCCN1C(=O)[C@H](CC(N)=O)NC(=O)[C@H](CCC(N)=O)NC(=O)[C@H](CC(=O)O)NC(=O)[C@H](CC(=O)O)NC(=O)[C@H](CS)NC(=O)[C@H](C)N)C(=O)N[C@@H](CC(=O)O)C(=O)N[C@@H](CC(C)C)C(=O)N[C@@H](CC(C)C)C(=O)N[C@@H](Cc1ccccc1)C(=O)N1CCC[C@H]1C(=O)N[C@H](C(=O)N[C@@H](CC(=O)O)C(=O)N[C@H](C(=O)N[C@@H](CC(C)C)C(=O)N[C@@H](CC(C)C)C(=O)N[C@@H](CC(C)C)C(=O)N[C@@H](CC(=O)O)C(=O)N[C@@H](CC(C)C)C(=O)N[C@@H](CC(C)C)C(=O)N[C@@H](Cc1c[nH]c2ccccc12)C(=O)N[C@@H](CCCCN)C(=O)O)[C@@H](C)O)[C@@H](C)O [125I-Var3-pHLIP] (HELM PEPTIDE1{A.C.D.D.Q.N.P.W.R.A.[O=C([C@H](Cc1ccc(O)c(I)c1)N[*:1])[*:2]].L.D.L.L.F.P.T.D.T.L.L.L.D.L.L.W.K}$$$$V2.0; N-terminus and C-terminus assumed)
binding fraction to cells, B/(B + F) × 100% (MDA-MB-231 cells; pH 6.2, 1 h): 24.90 ± 0.96% | binding fraction to cells with an excess of unlabeled peptide (MDA-MB-231 cells; pH 6.2, excess unlabeled peptide 25 μg/well): 1.50 ± 0.11% | binding fraction to cells, B/(B + F) × 100% (MDA-MB-231 cells; pH 6.6, 1 h): 23.88 ± 0.55% | binding fraction to cells, B/(B + F) × 100% (MDA-MB-231 cells; pH 7.0, 1 h): 23.40 ± 0.44% | binding fraction to cells, B/(B + F) × 100% (MDA-MB-231 cells; pH 7.4, 1 h): 12.3 ± 0.80% | binding fraction to cells, B/(B + F) × 100% (MDA-MB-231 cells; pH 7.8, 1 h): 1.30 ± 0.10%
